Assay results: ChEMBL document CHEMBL2203077, “Discovery of a novel series of 4-quinolone JNK inhibitors” (Bioorg Med Chem Lett, 2012)
≈ marks a conversion by molar mass, not a printed value.

Tests used:
[1] = […] bioavailability in ip dosed rat; format: ADME, organism-based; details: in vivo, intraperitoneal
[2] = Oral bioavailability in rat at 3 mg/kg administered using labrasol as vehicle; format: ADME, organism-based; details: in vivo
[3] = molecular target: Mitogen-activated protein kinase 7 (Homo sapiens, UniProt Q13164); assay: Binding affinity to T7-phage-tagged MAPK7 by PCR analysis
[4] = system: Caco-2; assay: Efflux ratio of permeability from apical to basal to basal to apical side of human Caco2 cells; format: ADME, cell-based
[5] = molecular target: Mitogen-activated protein kinase 13 (Homo sapiens, UniProt O15264); assay: Binding affinity to T7-phage-tagged P38delta by PCR analysis
[6] = molecular target: Serine/threonine-protein kinase RIO2 (Homo sapiens, UniProt Q9BVS4); assay: Binding affinity to T7-phage-tagged RIOK2 by PCR analysis
[7] = molecular target: Serine/threonine-protein kinase 17A (Homo sapiens, UniProt Q9UEE5); assay: Binding affinity to T7-phage-tagged STK17A by PCR analysis
Serine/threonine-protein kinase 17A, sequence (Q9UEE5 whole entry): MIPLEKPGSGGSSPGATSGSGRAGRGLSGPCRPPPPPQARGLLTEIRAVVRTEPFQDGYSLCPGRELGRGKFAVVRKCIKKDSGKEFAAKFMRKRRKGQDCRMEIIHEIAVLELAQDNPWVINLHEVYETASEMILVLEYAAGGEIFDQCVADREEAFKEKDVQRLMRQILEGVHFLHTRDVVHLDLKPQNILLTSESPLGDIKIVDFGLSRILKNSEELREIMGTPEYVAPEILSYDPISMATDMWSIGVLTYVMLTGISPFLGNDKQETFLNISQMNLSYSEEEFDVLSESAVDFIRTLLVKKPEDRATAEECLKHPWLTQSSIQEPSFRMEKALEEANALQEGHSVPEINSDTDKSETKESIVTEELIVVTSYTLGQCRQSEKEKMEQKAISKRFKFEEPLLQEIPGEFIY

[8] = molecular target: Mitogen-activated protein kinase 15 (Homo sapiens, UniProt Q8TD08); assay: Binding affinity to T7-phage-tagged MAPK15 by PCR analysis
Mitogen-activated protein kinase 15, sequence (Q8TD08 whole entry): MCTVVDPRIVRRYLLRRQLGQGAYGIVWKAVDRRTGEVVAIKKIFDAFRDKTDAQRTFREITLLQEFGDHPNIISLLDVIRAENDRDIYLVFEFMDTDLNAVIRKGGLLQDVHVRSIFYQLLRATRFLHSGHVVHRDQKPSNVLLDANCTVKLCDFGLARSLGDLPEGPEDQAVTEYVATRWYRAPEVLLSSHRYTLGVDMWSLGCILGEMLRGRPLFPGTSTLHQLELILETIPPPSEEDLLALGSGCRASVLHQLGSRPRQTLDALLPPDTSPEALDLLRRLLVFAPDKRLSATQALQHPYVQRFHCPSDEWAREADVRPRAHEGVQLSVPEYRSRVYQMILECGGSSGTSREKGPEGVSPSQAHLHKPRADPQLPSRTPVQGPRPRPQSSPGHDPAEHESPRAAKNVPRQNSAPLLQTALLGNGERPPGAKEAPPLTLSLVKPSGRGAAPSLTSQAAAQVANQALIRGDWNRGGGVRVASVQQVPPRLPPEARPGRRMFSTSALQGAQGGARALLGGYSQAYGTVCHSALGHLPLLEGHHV

[9] = molecular target: Death-associated protein kinase 2 (Homo sapiens, UniProt Q9UIK4); assay: Binding affinity to T7-phage-tagged DAPK2 by PCR analysis
Death-associated protein kinase 2, sequence (Q9UIK4 whole entry): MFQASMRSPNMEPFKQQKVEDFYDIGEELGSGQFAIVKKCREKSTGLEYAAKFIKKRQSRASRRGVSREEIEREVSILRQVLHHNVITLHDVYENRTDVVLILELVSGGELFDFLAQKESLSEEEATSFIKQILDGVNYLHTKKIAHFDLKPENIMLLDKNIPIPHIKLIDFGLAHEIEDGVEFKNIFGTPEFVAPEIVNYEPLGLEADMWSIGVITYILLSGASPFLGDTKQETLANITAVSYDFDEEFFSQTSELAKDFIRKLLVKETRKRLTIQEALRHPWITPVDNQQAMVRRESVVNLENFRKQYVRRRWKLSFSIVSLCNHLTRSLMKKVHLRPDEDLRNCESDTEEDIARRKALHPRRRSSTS

[10] = molecular target: T1, Mitogen-activated protein kinase 9 (Homo sapiens, UniProt P45984); assay: Inhibition of human JNK2 alpha2 using GST-tagged ATF2 as substrate and [gamma33P]ATP incubated for 10 mins prior to substrate addition measured after 30 mins by scintillation counting
T1 sequence (P45984 whole entry): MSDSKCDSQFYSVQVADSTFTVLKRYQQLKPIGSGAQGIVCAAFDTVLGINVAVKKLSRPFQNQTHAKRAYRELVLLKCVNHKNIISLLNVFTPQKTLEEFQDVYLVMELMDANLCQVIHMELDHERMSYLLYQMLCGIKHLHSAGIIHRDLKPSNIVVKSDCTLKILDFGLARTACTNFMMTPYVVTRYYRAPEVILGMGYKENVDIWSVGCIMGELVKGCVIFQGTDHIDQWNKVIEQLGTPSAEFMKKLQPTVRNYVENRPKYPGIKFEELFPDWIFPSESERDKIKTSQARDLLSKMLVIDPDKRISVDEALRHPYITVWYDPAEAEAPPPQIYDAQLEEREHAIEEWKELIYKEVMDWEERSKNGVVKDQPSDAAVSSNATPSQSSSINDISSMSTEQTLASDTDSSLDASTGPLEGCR

[11] = Oral bioavailability in dog at 3 mg/kg administered using hydroxypropyl methylcellulose as vehicle; format: ADME, organism-based, Canis lupus familiaris; details: in vivo
[12] = molecular target: T2, Mitogen-activated protein kinase 8 (Homo sapiens, UniProt P45983); assay: Binding affinity to T7-phage-tagged JNK1 by PCR analysis
T2 sequence (P45983 whole entry): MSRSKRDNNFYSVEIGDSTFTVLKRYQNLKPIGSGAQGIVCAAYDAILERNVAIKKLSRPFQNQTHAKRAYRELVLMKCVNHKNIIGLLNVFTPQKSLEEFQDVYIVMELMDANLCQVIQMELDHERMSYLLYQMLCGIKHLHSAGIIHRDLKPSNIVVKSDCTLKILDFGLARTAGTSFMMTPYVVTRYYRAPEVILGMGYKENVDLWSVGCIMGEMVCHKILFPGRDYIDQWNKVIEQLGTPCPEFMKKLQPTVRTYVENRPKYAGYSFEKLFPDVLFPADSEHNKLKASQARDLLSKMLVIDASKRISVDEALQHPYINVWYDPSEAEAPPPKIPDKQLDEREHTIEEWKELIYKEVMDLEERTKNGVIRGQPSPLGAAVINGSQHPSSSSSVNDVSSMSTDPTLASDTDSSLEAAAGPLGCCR

[13] = system: Rattus norvegicus; assay: Antiasthatic activity in ovalbumin-sensitized Brown Norway rat assessed as inhibition of ovalbumin-induced neutrophil infiltration into BAL at 10 mg/kg, sc administered 24 hrs prior to ovalbumin-challenge measured after 4 hrs relative to vehicle-treated control; format: functional; details: route subcutaneous
[14] = molecular target: Mitogen-activated protein kinase 12 (Homo sapiens, UniProt P53778); assay: Binding affinity to T7-phage-tagged P38gamma by PCR analysis
[15] = Solubility of the compound in phosphate buffer at pH 6.4; format: physicochemical
[16] = Clearance in dog at 3 mg/kg, iv; format: ADME, organism-based, Canis lupus familiaris; set-up: dose 3 mg/kg, route intravenous; details: in vivo
[17] = molecular target: T2, Mitogen-activated protein kinase 8; assay: Inhibition of human JNK1 alpha1 using GST-tagged ATF2 as substrate and [gamma33P]ATP incubated for 10 mins prior to substrate addition measured after 30 mins by scintillation counting
[18] = Half life in rat at 3 mg/kg, iv; format: ADME, organism-based; set-up: dose 3 mg/kg, route intravenous; details: in vivo
[19] = molecular target: Interleukin-1 receptor-associated kinase 1 (Homo sapiens, UniProt P51617); assay: Binding affinity to T7-phage-tagged IRAK1 by PCR analysis
[20] = molecular target: Death-associated protein kinase 3 (Homo sapiens, UniProt O43293); assay: Binding affinity to T7-phage-tagged DAPK3 by PCR analysis
[21] = molecular target: Dual specificity mitogen-activated protein kinase kinase 4 (Homo sapiens, UniProt P45985); assay: Binding affinity to T7-phage-tagged MAP2K4 by PCR analysis
[22] = molecular target: Cyclin-dependent kinase 7 (Homo sapiens, UniProt P50613); assay: Binding affinity to T7-phage-tagged CDK7 by PCR analysis
Cyclin-dependent kinase 7, sequence (P50613 whole entry): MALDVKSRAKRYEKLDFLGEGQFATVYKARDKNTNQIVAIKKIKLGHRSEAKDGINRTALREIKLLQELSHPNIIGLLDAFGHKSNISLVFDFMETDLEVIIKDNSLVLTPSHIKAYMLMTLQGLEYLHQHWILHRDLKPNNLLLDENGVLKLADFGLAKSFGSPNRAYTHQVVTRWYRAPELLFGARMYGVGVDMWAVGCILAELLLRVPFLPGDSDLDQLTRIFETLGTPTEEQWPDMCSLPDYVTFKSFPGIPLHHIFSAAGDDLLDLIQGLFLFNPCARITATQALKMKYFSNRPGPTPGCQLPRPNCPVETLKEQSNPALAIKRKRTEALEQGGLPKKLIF

[23] = molecular target: Death-associated protein kinase 1 (Homo sapiens, UniProt P53355); assay: Binding affinity to T7-phage-tagged DAPK1 by PCR analysis
Death-associated protein kinase 1, sequence (P53355 whole entry): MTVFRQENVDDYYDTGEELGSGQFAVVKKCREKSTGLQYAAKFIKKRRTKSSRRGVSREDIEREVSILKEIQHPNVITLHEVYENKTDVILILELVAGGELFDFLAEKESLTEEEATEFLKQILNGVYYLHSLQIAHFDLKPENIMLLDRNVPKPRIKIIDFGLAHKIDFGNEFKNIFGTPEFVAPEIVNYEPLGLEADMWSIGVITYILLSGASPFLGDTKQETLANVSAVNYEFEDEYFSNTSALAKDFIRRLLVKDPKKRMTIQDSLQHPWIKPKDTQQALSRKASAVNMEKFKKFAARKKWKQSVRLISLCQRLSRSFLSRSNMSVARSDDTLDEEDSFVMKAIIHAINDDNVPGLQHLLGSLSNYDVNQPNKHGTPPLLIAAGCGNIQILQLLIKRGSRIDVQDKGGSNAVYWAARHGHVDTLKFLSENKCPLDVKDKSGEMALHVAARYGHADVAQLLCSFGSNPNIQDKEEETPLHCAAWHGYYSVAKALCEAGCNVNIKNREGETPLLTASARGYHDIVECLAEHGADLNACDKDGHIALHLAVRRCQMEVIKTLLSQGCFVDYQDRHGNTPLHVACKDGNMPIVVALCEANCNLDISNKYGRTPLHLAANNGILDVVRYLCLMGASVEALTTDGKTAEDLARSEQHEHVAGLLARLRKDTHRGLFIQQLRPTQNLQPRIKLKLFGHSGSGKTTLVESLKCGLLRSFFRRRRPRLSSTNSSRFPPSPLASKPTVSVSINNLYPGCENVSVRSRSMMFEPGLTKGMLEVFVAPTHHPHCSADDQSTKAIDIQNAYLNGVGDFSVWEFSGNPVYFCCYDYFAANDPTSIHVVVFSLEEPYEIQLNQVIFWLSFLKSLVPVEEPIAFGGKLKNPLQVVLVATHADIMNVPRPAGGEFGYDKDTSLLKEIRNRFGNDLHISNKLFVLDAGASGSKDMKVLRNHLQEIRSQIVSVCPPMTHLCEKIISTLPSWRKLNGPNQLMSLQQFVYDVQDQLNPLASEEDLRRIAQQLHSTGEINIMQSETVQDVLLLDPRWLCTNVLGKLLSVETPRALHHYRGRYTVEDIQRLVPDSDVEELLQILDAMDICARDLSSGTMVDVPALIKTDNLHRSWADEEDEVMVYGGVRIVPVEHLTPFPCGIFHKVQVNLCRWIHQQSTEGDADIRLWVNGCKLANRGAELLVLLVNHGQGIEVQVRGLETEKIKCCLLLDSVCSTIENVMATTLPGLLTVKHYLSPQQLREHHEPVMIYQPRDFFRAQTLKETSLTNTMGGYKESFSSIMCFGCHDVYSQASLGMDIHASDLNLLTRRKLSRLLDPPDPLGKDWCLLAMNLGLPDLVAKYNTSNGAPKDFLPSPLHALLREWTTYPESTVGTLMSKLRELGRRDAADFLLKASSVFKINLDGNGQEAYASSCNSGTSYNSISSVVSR

[24] = molecular target: c-Jun N-terminal kinase, JNK (Homo sapiens, UniProt P45983+P53779+P45984); assay: Inhibition of JNK in human SW1353 assessed as inhibition of TNFalpha-inuced c-Jun phosphorylation incubated for 30 mins prior to TNFalpha-induction measured after 20 mins by immunostaining method
[25] = molecular target: T1, Mitogen-activated protein kinase 9; assay: Binding affinity to T7-phage-tagged JNK2 by PCR analysis
[26] = molecular target: Ribosomal protein S6 kinase alpha-1 (Homo sapiens, UniProt Q15418); assay: Binding affinity to T7-phage-tagged RPS6KA1 by PCR analysis
[27] = Clearance in rat at 3 mg/kg, iv; format: ADME, organism-based; set-up: dose 3 mg/kg, route intravenous; details: in vivo
[28] = system: Rattus norvegicus; assay: Antiasthatic activity in ovalbumin-sensitized Brown Norway rat assessed as inhibition of ovalbumin-induced total white blood cells infiltration into BAL at 10 mg/kg, sc administered 24 hrs prior to ovalbumin-challenge measured after 4 hrs relative to vehicle-treated control; format: functional; details: route subcutaneous
[29] = molecular target: Serine/threonine-protein kinase DCLK3 (Homo sapiens, UniProt Q9C098); assay: Binding affinity to T7-phage-tagged DCAMKL3 by PCR analysis
[30] = Oral bioavailability in rat at 3 mg/kg administered using hydroxypropyl methylcellulose as vehicle; format: ADME, organism-based; details: in vivo
[31] = molecular target: Inhibitor of nuclear factor kappa-B kinase subunit beta (Homo sapiens, UniProt O14920); assay: Binding affinity to T7-phage-tagged IKKbeta by PCR analysis
Inhibitor of nuclear factor kappa-B kinase subunit beta, sequence (O14920 whole entry): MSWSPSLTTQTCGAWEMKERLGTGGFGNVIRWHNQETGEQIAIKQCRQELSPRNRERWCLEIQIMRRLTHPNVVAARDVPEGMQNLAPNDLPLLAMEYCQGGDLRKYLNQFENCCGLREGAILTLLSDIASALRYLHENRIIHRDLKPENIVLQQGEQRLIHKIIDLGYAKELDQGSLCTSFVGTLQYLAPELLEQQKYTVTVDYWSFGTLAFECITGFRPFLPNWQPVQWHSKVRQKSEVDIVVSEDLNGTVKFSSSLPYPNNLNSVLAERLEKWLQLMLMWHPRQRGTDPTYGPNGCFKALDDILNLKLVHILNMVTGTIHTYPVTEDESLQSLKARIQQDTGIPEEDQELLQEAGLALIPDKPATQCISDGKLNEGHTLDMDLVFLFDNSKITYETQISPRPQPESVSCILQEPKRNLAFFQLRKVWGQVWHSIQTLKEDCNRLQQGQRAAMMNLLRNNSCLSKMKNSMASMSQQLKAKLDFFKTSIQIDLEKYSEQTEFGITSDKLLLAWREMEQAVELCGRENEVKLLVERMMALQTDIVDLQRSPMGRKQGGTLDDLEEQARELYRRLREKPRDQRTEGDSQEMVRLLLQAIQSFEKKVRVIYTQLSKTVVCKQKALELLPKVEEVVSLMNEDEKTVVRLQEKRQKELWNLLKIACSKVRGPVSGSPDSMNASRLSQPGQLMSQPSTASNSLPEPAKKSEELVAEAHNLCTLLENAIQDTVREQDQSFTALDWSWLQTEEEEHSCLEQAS

[32] = molecular target: Myosin light chain kinase family member 4 (Homo sapiens, UniProt Q86YV6); assay: Binding affinity to T7-phage-tagged SgK085 by PCR analysis
[33] = Half life in dog at 3 mg/kg, iv; format: ADME, organism-based, Canis lupus familiaris; set-up: dose 3 mg/kg, route intravenous; details: in vivo

In the case of `COC(=O)c1c(Cc2ccc(C(=O)NCCO)cc2)c(=O)c2ccc(Cl)cc2n1-c1ccccc1`, the bioavailability [1] is reported as 100%, the bioavailability [2] is reported as 43% and the Kd [3] is reported as over 10000 nM. For the same compound, the Ratio [4] was 7, the Kd [5] was over 10000 nM and the Kd [6] was over 10000 nM. It also gave a Kd [7] of over 10000 nM, a Kd [8] of over 10000 nM and a Kd [9] of over 10000 nM. For the same compound, the IC50 [10] was 170 nM, the bioavailability [11] was 40% and the Kd [12] was 62 nM. For the same compound, the inhibition in vivo at 10 mg/kg [13] was 55%, the Kd [14] was over 10000 nM and the solubility [15] was 8.5 µg/mL (≈ 17.3 µM). It also gave a clearance [16] of 3.4 mL/min/kg, an IC50 [17] of 62 nM and a half-life [18] of 1 h. For the same compound, the Kd [19] was over 10000 nM, the Kd [20] was over 10000 nM and the Kd [21] was over 10000 nM. The Kd [22] was over 10000 nM, the Kd [23] was over 10000 nM and the IC50 [24] was 3000 nM. It also gave a Kd [25] of 170 nM, a Kd [26] of over 10000 nM and a clearance [27] of 25 mL/min/kg. For the same compound, the inhibition in vivo at 10 mg/kg [28] was 40%, the Kd [29] was over 10000 nM and the bioavailability [30] was 6%. It also gave a Kd [31] of over 10000 nM, a Kd [32] of over 10000 nM and a half-life [33] of 2.5 h.

`COC(=O)c1c(Cc2ccc(S(C)(=O)=O)cc2)c(=O)c2ccc(C(F)(F)F)nc2n1-c1ccccc1` showed an IC50 [10] of 220 nM, an IC50 [17] of 82 nM and an IC50 [24] of 2700 nM.

With `COC(=O)c1c(Cc2ccc(C(=O)NCCO)cc2)c(=O)c2ccc(C(F)(F)F)nc2n1-c1ccccc1` the IC50 [10] was 176 nM, the IC50 [17] was 80 nM and the IC50 [24] was 4300 nM.

`COC(=O)c1c(CN2CCN(S(C)(=O)=O)CC2)c(=O)c2ccc(F)cc2n1-c1ccccc1` showed an IC50 [10] of 507 nM and an IC50 [17] of 65 nM.

In the case of `COC(=O)c1c(CN2CCC(S(C)(=O)=O)CC2)c(=O)c2ccc(F)cc2n1-c1ccccc1`, the Ratio [4] is reported as 2, the IC50 [10] is reported as 140 nM and the solubility [15] is reported as 34 µg/mL (≈ 72 µM). The IC50 [17] was 23 nM and the IC50 [24] was 830 nM.

For `COC(=O)c1c(CN2CCOCC2)c(=O)c2ccc(F)cc2n1-c1ccccc1`, the IC50 [10] was 900 nM and the IC50 [17] was 114 nM.

`COC(=O)c1c(CN2CC[C@@H](S(C)(=O)=O)C2)c(=O)c2ccc(F)cc2n1-c1ccccc1` showed an IC50 [10] of 1310 nM and an IC50 [17] of 130 nM.

Compound `COC(=O)c1c(CN2CC[C@H](S(C)(=O)=O)C2)c(=O)c2ccc(F)cc2n1-c1ccccc1` has an IC50 [10] of 535 nM and an IC50 [17] of 53 nM.

`COC(=O)c1c(CN2CCC(S(C)(=O)=O)CC2)c(=O)c2ccc(C)nc2n1-c1ccccc1` gave an IC50 [10] of 190 nM and an IC50 [24] of 430 nM.

For `COC(=O)c1c(CN2CCC(S(C)(=O)=O)CC2)c(=O)c2ccc(C(F)(F)F)nc2n1-c1ccccc1`, the IC50 [10] was 290 nM and the IC50 [24] was 4300 nM.

`CCn1c(=O)c2ccccc2n(-c2ccccc2)c1=O` showed an IC50 [10] of over 20000 nM and an IC50 [17] of 11000 nM.

Work on `O=c1c2ccccc2n(-c2ccccc2)c(=O)n1Cc1ccccc1` yielded an IC50 [10] of 9300 nM and an IC50 [17] of 2800 nM.

Compound `O=c1c2ccc(Cl)cc2n(-c2ccccc2)c(=O)n1Cc1ccccc1` has an IC50 [10] of 3800 nM and an IC50 [17] of 2300 nM.

Compound `COC(=O)c1c(Cc2ccccc2)c(=O)c2ccc(Cl)cc2n1-c1ccccc1` has an IC50 [10] of 960 nM and an IC50 [17] of 370 nM.

Compound `CNS(=O)(=O)c1ccc(Cc2c(C(=O)OC)n(-c3ccccc3)c3cc(Cl)ccc3c2=O)cc1` has an IC50 [17] of 47 nM.

`CCNC(=O)c1ccc(Cc2c(C(=O)OC)n(-c3ccccc3)c3cc(Cl)ccc3c2=O)cc1` showed an IC50 [10] of 94 nM and an IC50 [17] of 38 nM.

In the case of `COC(=O)c1c(Cc2ccc(S(=O)(=O)N3CCNCC3)cc2)c(=O)c2ccc(Cl)cc2n1-c1ccccc1`, the Ratio [4] is reported as 2, the IC50 [10] is reported as 50 nM and the solubility [15] is reported as 23 µg/mL (≈ 41.7 µM). It also gave an IC50 [17] of 30 nM and an IC50 [24] of 1000 nM.

For `COC(=O)c1c(Cc2ccc(S(=O)(=O)N3CCNCC3)cc2)c(=O)c2ccc(F)cc2n1-c1ccccc1`, the IC50 [10] was 70 nM, the solubility [15] was 37 µg/mL (≈ 69.1 µM) and the IC50 [17] was 30 nM. It also gave an IC50 [24] of 1700 nM.

Work on `COC(=O)c1c(Cc2ccc(S(=O)(=O)CCO)cc2)c(=O)c2ccc(F)cc2n1-c1ccccc1` yielded an IC50 [10] of 219 nM, an IC50 [17] of 58 nM and an IC50 [24] of 2500 nM.

With `COC(=O)c1c(Cc2ccc(C(=O)NCCO)cc2)c(=O)c2ccc(C)nc2n1-c1ccccc1` the Ratio [4] was 15, the IC50 [10] was 64 nM and the solubility [15] was 78 µg/mL (≈ 165 µM). The IC50 [17] was 30 nM and the IC50 [24] was 4200 nM.

`COC(=O)c1c(Cc2ccc(S(=O)(=O)N3CCNCC3)cc2)c(=O)c2ccc(C)nc2n1-c1ccccc1` showed an IC50 [10] of 28 nM, an IC50 [17] of 18 nM and an IC50 [24] of 560 nM.

For `CCNC(=O)c1ccc(Cc2c(C(=O)OC)n(-c3ccccc3)c3nc(C)ccc3c2=O)cc1`, the IC50 [10] was 87 nM, the IC50 [17] was 45 nM and the IC50 [24] was 4700 nM.

Compound `COC(=O)c1c(Cc2ccc(S(C)(=O)=O)cc2)c(=O)c2ccc(C)nc2n1-c1cccc(N)c1` has an IC50 [10] of 32 nM, an IC50 [17] of 14 nM and an IC50 [24] of 860 nM.
